{
  "source": "patent US5872124A",
  "about": "“Treatment of diseases of the central nervous system using uric acid as a scavenger of peroxynitrite” (Thomas Jefferson University, priority 1996, dated 1999)",
  "key": {"[1]": {"assay": "Side-effects of PTIO in EAE", "type": "in vivo", "description": "The biological half-life of carboxy-PTIO are estimated to be less than five minutes in the blood when injected i.v. or i.p. into either rats or mice. Approximately 75% of the PTIO administered to mice can be accounted for in excretions within 4 hours. Nevertheless, the clinical symptoms of animals subjected to the stimuli that induce EAE and treated with PTIO are clearly alleviated for at least 24 hours between doses. […] It is possible that the removal of a significant quantity of NO may reduce the amount of tissue damage to a level that the animal can cope with. However, we believe that it is possible that the transient reduction of NO accumulation in an inflammatory response may have more wide ranging effects for instance through the disturbance of regulatory circuits effecting the production of NO or one of the other related substances involved in immunopathology. […] Through its effects on the circulation, NO may play a role in facilitating access of MBP specific T cells to the brain which could be inhibited by PTIO. It is also conceivable that a PTIO derivative formed by its interaction with NO also has some protective effect. […]"}, "[2]": {"tested_on": "experimental allergic encephalomyelitis (EAE), immunization-elicited", "assay": "Clinical severity of immunization-elicited EAE in SJL mice", "type": "in vivo", "description": "Induction of EAE in rats by adoptive transfer of MBP-specific T cells or in SJL or SWXJ-14 mice by immunization with MBP or PLP 139-151, a peptide derived from […] [8], results in variable disease. We have scored the clinical systems of EAE as tabulated below.\nSeverity scores and symptoms of Experimental Allergic\n1 piloerection, tail weakness\n3 hind limb weakness/paralysis\n4 hind and forelimb paralysis\nSJL mice are immunized subcutaneously with pMBP in adjuvant to induce EAE, from which they often recover. Commencing ten days post-immunization, groups of mice (n=6) were treated once daily with 2 mg of either PTIO or carboxy-PTIO intraperitoneally and observed for clinical signs of EAE which were graded as detailed in Table 1. […] At 18 days […], NO determinations were performed in several mice from each group."}},
  "data": [
    {"smiles": "CC1(C)N([O])C(c2ccccc2)=[N+]([O-])C1(C)C", "note": "[PTIO, 2-phenyl-4,4,5,5-tetramethylimidazoline-1-oxyl-3-oxide]", "values": [
      {"measurement": "Side-effects", "setting": "[1]", "result": "without notable side-effects"},
      {"measurement": "Onset and severity of EAE (FIG. 7)", "setting": "[2]; 2 mg once daily i.p. from day 10 post-immunization, n=6", "result": "delayed onset of disease and somewhat lessened severity by comparison with untreated animals"},
      {"measurement": "Clinical symptoms of EAE", "setting": "[2]; SJL mice, i.p. administration", "result": "forestall the appearance of clinical symptoms of EAE"},
      {"measurement": "Clinical severity", "setting": "[2]; SJL mouse - immunization EAE, severity score 1-5, Table 2", "result": 0.8}
    ]}
  ]
}
